Laboratory results published in patent US10100019B2.

Key:
H3122 cells = assay: Cytotoxicity in non-small cell lung cancer cell line H3122 (SRB); format: cell-based, human; conditions: H3122 cells, three days, SRB
Procedure: Particularly, 4,000 H3122 cells containing ALK enzyme were distributed in each well of a 96 well plate together with 100 μl of DMEM (Dulbecco's Modified Eagle's Medium). One day later, the compound of the present invention was added to each well at different concentrations of […]. DMSO (dimethylsulfoxide) was added to the well that was not loaded with the compound by the same amount as the compound. Three days after the addition of the compound, DMEM was eliminated. 10% TCA (trichloroacetic acid) was added to fix the cells. The wells were washed with running water three times and the live cells were stained with SRB solution (1 sulphorodamine B). Then, OD was measured to calculate the population of the live cells.

H2228 cells = assay: cells; conditions: Homo sapiens, NCI-H2228, 72 h, read-out: Cytotoxicity H2228 (GI50 μM), H2228 cells, three days, SRB

SMILES | GI50 (H3122 cells; Homo sapiens, NCI-H3122, 72 h) | GI50 (H2228 cells) | GI50 (H3122 cells)
CCOCCOC(=O)Cc1ccc(OC)c(Nc2ncc(Cl)c(Nc3ccccc3S(=O)(=O)C(C)C)n2)c1 [Example 43, 2-ethoxyethyl 2-(3-((5-chloro-4-((2-(isopropylsulfonyl)phenyl)amino)pyrimidine-2-yl)amino)-4-methoxyphenyl)acetate] | > 10 µM | – | –
COc1ccc(CCN(C)C)cc1Nc1ncc(Cl)c(Nc2ccccc2S(=O)(=O)C(C)C)n1 [Example 9, 5-chloro-N2-(5-(2-(dimethylamino)ethyl)-2-methoxyphenyl)-N4-(2-(isopropylsulfonyl)phenyl)pyrimidine-2,4-diamine] | 0.22 µM | 0.23 µM | –
COc1ccc(CCNCc2ccccc2)cc1Nc1ncc(Cl)c(Nc2ccccc2S(=O)(=O)C(C)C)n1 [Example 11, N2-(5-(2-(benzylamino)ethyl)-2-methoxyphenyl)-5-chloro-N4-(2-(isopropylsulfonyl)phenyl)pyrimidine-2,4-diamine] | 1.4 µM | 1.4 µM | –
CC(C)Oc1ccc(CCN)cc1Nc1ncc(Cl)c(Nc2ccccc2S(=O)(=O)C(C)C)n1 [Example 31, N2-(5-(2-aminoethyl)-2-isopropoxyphenyl)-5-chloro-N4-(2-(isopropylsulfonyl)phenyl)pyrimidine-2,4-diamine] | 0.7 µM | 0.51 µM | –
CNC(=S)NCCc1ccc(OC)c(Nc2ncc(Cl)c(Nc3ccccc3S(=O)(=O)C(C)C)n2)c1 [Example 19, 1-(3-(5-chloro-4-(2-(isopropylsulfonyl)phenylamino)pyrimidine-2-ylamino)-4-methoxyphenethyl)-3-methylthiourea] | 1.1 µM | 10 µM | –
CCN(CC)CCc1ccc(OC)c(Nc2ncc(Cl)c(Nc3ccccc3S(=O)(=O)C(C)C)n2)c1 [Example 14, 5-chloro-N2-(5-(2-(diethylamino)ethyl)-2-methoxyphenyl)-N4-(2-(isopropylsulfonyl)phenyl)pyrimidine-2,4-diamine] | ≤ 0.1 µM | 0.09 µM | 0.05 µM
COc1ccc(CCNC(=O)Nc2ccccc2)cc1Nc1ncc(Cl)c(Nc2ccccc2S(=O)(=O)C(C)C)n1 [Example 18, 1-(3-(5-chloro-4-(2-(isopropylsulfonyl)phenylamino)pyrimidine-2-ylamino)-4-methoxyphenethyl)-3-phenylurea] | 3.6 µM | 4.9 µM | –
COc1ccc(CCN)cc1Nc1ncc(Cl)c(Nc2ccccc2S(=O)(=O)C(C)C)n1 [Example 4, N2-(5-(2-aminoethyl)-2-methoxyphenyl)-5-chloro-N4-(2-(isopropylsulfonyl)phenyl) pyrimidine-2,4-diamine] | ≤ 0.1 µM | – | 0.08 µM
COc1ccc(CC(=O)Nc2ccccc2)cc1Nc1ncc(Cl)c(Nc2ccccc2S(=O)(=O)C(C)C)n1 [Example 50, 2-(3-((5-chloro-4-((2-(isopropylsulfonyl)phenyl)amino)pyrimidine-2-yl)amino)-4-methoxyphenyl)-N-phenylacetamide] | – | – | 10 µM
COc1ccc(CCCNC(=O)C(F)(F)F)cc1Nc1ncc(Cl)c(Nc2ccccc2S(=O)(=O)C(C)C)n1 [Example 40, N-(3-(3-((5-chloro-4-((2-(isopropylsulfonyl)phenyl)amino)pyrimidine-2-yl)amino)-4-methoxyphenyl)propyl)-2,2,2-trifluoroacetamide] | 0.33 µM | – | –
COc1ccc(CCCN)cc1Nc1ncc(Cl)c(Nc2ccccc2S(=O)(=O)C(C)C)n1 [Example 41, N2-(5-(3-aminopropyl)-2-methoxyphenyl)-5-chloro-N4-(2-(isopropylsulfonyl)phenyl)pyrimidine-2,4-diamine] | 0.19 µM | – | –
COc1ccc(CC(=O)Nc2ccncc2)cc1Nc1ncc(Cl)c(Nc2ccccc2S(=O)(=O)C(C)C)n1 [Example 49, 2-(3-((5-chloro-4-((2-(isopropylsulfonyl)phenyl)amino)pyrimidine-2-yl)amino)-4-methoxyphenyl)-N-(pyridine-4-yl)acetamide] | – | – | 10 µM
COc1ccc(CC(=O)N2CCNCC2)cc1Nc1ncc(Cl)c(Nc2ccccc2S(=O)(=O)C(C)C)n1 [Example 48, 2-(3-((5-chloro-4-((2-(isopropylsulfonyl)phenyl)amino)pyrimidine-2-yl)amino)-4-methoxyphenyl)-1-(piperazine-1-yl) ethane-1-one] | 0.58 µM | – | –
COc1ccc(CC(N)=O)cc1Nc1ncc(Cl)c(Nc2ccccc2S(=O)(=O)C(C)C)n1 [Example 42, 2-(3-((5-chloro-4-((2-(isopropylsulfonyl)phenyl)amino)pyrimidine-2-yl)amino)-4-methoxyphenyl)acetamide] | 0.15 µM | – | –
COc1ccc(CC(=O)N2CCOCC2)cc1Nc1ncc(Cl)c(Nc2ccccc2S(=O)(=O)C(C)C)n1 [Example 45, 2-(3-((5-chloro-4-((2-(isopropylsulfonyl)phenyl)amino)pyrimidine-2-yl)amino)-4-methoxyphenyl)-1-morpholinoethane-1-one] | – | – | 10 µM
COc1ccc(CC(=O)N2CCCCC2)cc1Nc1ncc(Cl)c(Nc2ccccc2S(=O)(=O)C(C)C)n1 [Example 46, 2-(3-((5-chloro-4-((2-(isopropylsulfonyl)phenyl)amino)pyrimidine-2-yl)amino)-4-methoxyphenyl)-1-(piperidine-1-yl)ethane-1-one] | – | – | 10 µM
COc1ccc(CCN2CCNCC2)cc1Nc1ncc(Cl)c(Nc2ccccc2S(=O)(=O)C(C)C)n1 [Example 73, 5-chloro-N4-(2-(isopropylsulfonyl)phenyl)-N2-(2-methoxy-5-(2-(piperazine-1-yl)ethyl)phenyl)pyrimidine-2,4-diamine] | 0.16 µM | – | –
COc1cc(C[N+](C)(C)C)c(C)cc1Nc1ncc(Cl)c(Nc2ccccc2S(=O)(=O)C(C)C)n1 [Example 69, 1-(4-((5-chloro-4-((2-(isopropylsulfonyl)phenyl)amino)pyrimidine-2-yl)amino)-5-methoxy-2-methylphenyl)-N,N,N-trimethylmethanealuminum iodide] | 1.7 µM | – | –
COc1ccc(CC(=O)O)cc1Nc1ncc(Cl)c(Nc2ccccc2S(=O)(=O)C(C)C)n1 [Example 44, 2-(3-((5-chloro-4-((2-(isopropylsulfonyl)phenyl)amino)pyrimidine-2-yl)amino)-4-methoxyphenyl)acetic acid] | 1 µM | – | –
COc1cc(Br)c(CCN)cc1Nc1ncc(Cl)c(Nc2ccccc2S(=O)(=O)C(C)C)n1 [Example 51, N2-(5-(2-aminoethyl)-4-bromo-2-methoxyphenyl)-5-chloro-N4-(2-(isopropylsulfonyl)phenyl)pyrimidine-2,4-diamine] | 1.1 µM | – | –
COc1cc(-c2cnn(C)c2)c(CCN)cc1Nc1ncc(Cl)c(Nc2ccccc2S(=O)(=O)C(C)C)n1 [Example 52, N2-(5-(2-aminoethyl)-2-methoxy-4-(1-methyl-1H-pyrazole-4-yl)phenyl)-5-chloro-N4-(2-(isopropylsulfonyl)phenyl)pyrimidine-2,4-diamine] | 0.096 µM | – | –
COc1cc(CN)c(C)cc1Nc1ncc(Cl)c(Nc2ccccc2S(=O)(=O)C(C)C)n1 [Example 68, N2-(4-(aminomethyl)-2-methoxy-5-methylphenyl)-5-chloro-N4-(2-(isopropylsulfonyl)phenyl)pyrimidine-2,4-diamine] | 0.11 µM | – | –
COc1cc(C(C)(C)N)c(C)cc1Nc1ncc(Cl)c(Nc2ccccc2S(=O)(=O)C(C)C)n1 [Example 57, N2-(4-(2-aminopropane-2-yl)-2-methoxy-5-methylphenyl)-5-chloro-N4-(2-(isopropylsulfonyl)phenyl)pyrimidine-2,4-diamine] | 0.012 µM | – | –
